Active and inactive are the calls of the source. The rule behind the calls is not given here.
Key:
[1] = system: NCI-H345; experiment: Growth inhibition of human NCI-H345 cells in presence of HGF measured after 72 hrs by 3-(4,5 dimethylthiazol-2-yl)-2,5-diphenyltetrazolium bromide assay; assay type: functional, cell-based
[2] = system: BaF3; experiment: Inhibition of Serine phosphorylation of AKT at Ser473 in mouse BaF3 cells transfected with TPR-MET genes at 0.2 to 5 uM by immunoblotting analysis; assay type: cell-based; settings: dose 0.2-5 µM
[3] = system: BaF3; experiment: Induction of apoptosis in mouse BaF3 cells transfected with TPR-MET genes assessed as total apoptotic cells at 1 uM measured after 18 hrs by annexin V and propidium iodide staining based flow cytometry assay (reference value: 5%); assay type: functional
[4] = target: Cyclin-dependent kinase 2 (Homo sapiens, UniProt P24941); experiment: Inhibition of glutathione S-transferase fused CDK2 (unknown origin) catalytic activity infected in Sf9 cells using poly-Glu-Tyr (4:1) as substrate
[5] = system: BaF3; experiment: Inhibition of cell growth in mouse BaF3 cells transfected with TEL-ABL genes at 1 uM measured after 18 hrs by 3-(4,5-dimethylthiazol-2-yl)-2,5-diphenyltetrazolium bromide assay; assay type: functional, cell-based
[6] = system: BaF3; experiment: Induction of cell cycle arrest in mouse BaF3 cells transfected with TPR-MET genes assessed as cells accumulation at G1 phase at 0.2 uM by fluorescence-activated cell sorter analysis (reference value: 42.4%); assay type: functional
[7] = system: BaF3; experiment: Induction of apoptosis in mouse BaF3 cells transfected with TPR-MET genes assessed as late apoptotic cells at 1 uM measured after 18 hrs by annexin V and propidium iodide staining based flow cytometry assay (reference value: 3.8%); assay type: functional
[8] = system: BaF3; experiment: Induction of cell cycle arrest in mouse BaF3 cells transfected with TPR-MET genes assessed as cells accumulation at G1 phase at 5 uM by fluorescence-activated cell sorter analysis (reference value: 42.4%); assay type: functional
[9] = system: BaF3; experiment: Induction of cell cycle arrest in mouse BaF3 cells transfected with TPR-MET genes assessed as cells accumulation at S phase at 0.2 uM by fluorescence-activated cell sorter analysis (reference value: 45.4%); assay type: functional
[10] = target: Vascular endothelial growth factor receptor 2 (Homo sapiens, UniProt P35968); experiment: Inhibition of glutathione S-transferase fused Flk1 (unknown origin) catalytic activity infected in Sf9 cells using poly-Glu-Tyr (4:1) as substrate
[11] = system: BaF3; experiment: Inhibition of migration of mouse BaF3 cells measured after 4 hrs by spontaneous transwell migration assay; assay type: functional, cell-based; settings: dose 0.2-5 µM
[12] = target: Platelet-derived growth factor receptor beta (Homo sapiens, UniProt P09619); experiment: Inhibition of glutathione S-transferase fused PDGFbetaR (unknown origin) catalytic activity infected in Sf9 cells using poly-Glu-Tyr (4:1) as substrate
[13] = target: Angiopoietin-1 receptor (Homo sapiens, UniProt Q02763); experiment: Inhibition of glutathione S-transferase fused Tie2 (unknown origin) catalytic activity infected in Sf9 cells using poly-Glu-Tyr (4:1) as substrate
[14] = target: T1, Hepatocyte growth factor receptor (Homo sapiens, UniProt P08581); experiment: Inhibition of HGF-dependent Met (unknown origin) phosphorylation
[15] = target: Epidermal growth factor receptor (Homo sapiens, UniProt P00533); experiment: Inhibition of glutathione S-transferase fused EGFR (unknown origin) catalytic activity infected in Sf9 cells using poly-Glu-Tyr (4:1) as substrate
[16] = target: T2, Fibroblast growth factor receptor 1 (Homo sapiens, UniProt P11362); experiment: Inhibition of glutathione S-transferase fused FGFR1 (unknown origin) catalytic activity infected in Sf9 cells using poly-Glu-Tyr (4:1) as substrate
Target sequence in this assay (P11362 whole entry, the tested form may be a part): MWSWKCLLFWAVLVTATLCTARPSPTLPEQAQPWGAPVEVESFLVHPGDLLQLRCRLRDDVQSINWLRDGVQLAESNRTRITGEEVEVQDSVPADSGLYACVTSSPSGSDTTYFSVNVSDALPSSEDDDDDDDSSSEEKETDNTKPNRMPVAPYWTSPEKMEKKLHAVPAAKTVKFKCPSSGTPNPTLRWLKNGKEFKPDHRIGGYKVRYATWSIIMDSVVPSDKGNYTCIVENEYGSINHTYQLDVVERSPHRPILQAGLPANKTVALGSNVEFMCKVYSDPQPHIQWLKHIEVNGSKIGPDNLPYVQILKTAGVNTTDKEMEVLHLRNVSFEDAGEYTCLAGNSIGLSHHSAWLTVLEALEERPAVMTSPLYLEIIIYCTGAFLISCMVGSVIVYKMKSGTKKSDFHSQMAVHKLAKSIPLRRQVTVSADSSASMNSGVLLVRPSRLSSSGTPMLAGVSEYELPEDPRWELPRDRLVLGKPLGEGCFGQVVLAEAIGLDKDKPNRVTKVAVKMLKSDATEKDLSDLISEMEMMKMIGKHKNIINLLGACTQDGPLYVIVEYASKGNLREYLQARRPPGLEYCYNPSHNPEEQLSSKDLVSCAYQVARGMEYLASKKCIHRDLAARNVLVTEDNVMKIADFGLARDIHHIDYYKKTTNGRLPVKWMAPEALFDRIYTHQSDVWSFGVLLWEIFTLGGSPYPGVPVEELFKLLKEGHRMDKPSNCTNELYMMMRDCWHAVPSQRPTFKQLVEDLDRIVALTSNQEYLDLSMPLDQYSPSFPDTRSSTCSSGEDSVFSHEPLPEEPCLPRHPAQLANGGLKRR

[17] = system: BaF3; experiment: Inhibition of cell growth in mouse BaF3 cells transfected with BCR-ABL genes at 1 uM measured after 18 hrs by 3-(4,5-dimethylthiazol-2-yl)-2,5-diphenyltetrazolium bromide assay; assay type: functional, cell-based
[18] = system: BaF3; experiment: Reduction in tyrosine phosphorylation of cellular proteins in mouse BaF3 cells transfected with TPR-MET genes by immunoblotting analysis; assay type: functional, cell-based; settings: dose 0.2-5 µM
[19] = system: BaF3; experiment: Inhibition of migration of mouse BaF3 cells at 5 uM measured after 4 hrs by spontaneous transwell migration assay relative to control; assay type: functional
[20] = system: BaF3; experiment: Induction of apoptosis in mouse BaF3 cells transfected with TPR-MET genes assessed as early apoptotic cells at 1 uM measured after 18 hrs by annexin V and propidium iodide staining based flow cytometry assay (reference value: 2.5%); assay type: functional
[21] = system: BaF3; experiment: Induction of cell cycle arrest in mouse BaF3 cells transfected with TPR-MET genes assessed as cells accumulation at G1 phase at 1 uM by fluorescence-activated cell sorter analysis (reference value: 42.4%); assay type: functional
[22] = system: BaF3; experiment: Inhibition of cell growth in mouse BaF3 cells transfected with TPR-MET genes in presence of interleukin 3 at 1 uM measured after 3 days by 3-(4,5-dimethylthiazol-2-yl)-2,5-diphenyltetrazolium bromide assay; assay type: functional, cell-based; settings: time 3.0 day
[23] = system: BaF3; experiment: Inhibition of cell growth in mouse BaF3 cells transfected with BCR-ABL genes in presence of interleukin 3 at 1 uM measured after 18 hrs by 3-(4,5-dimethylthiazol-2-yl)-2,5-diphenyltetrazolium bromide assay; assay type: functional, cell-based
[24] = system: BaF3; experiment: Induction of apoptosis in mouse BaF3 cells transfected with TPR-MET genes assessed as necrotic cells at 1 uM measured after 18 hrs by annexin V and propidium iodide staining based flow cytometry assay (reference value: 0.1%); assay type: functional
[25] = system: BaF3; experiment: Inhibition of cell growth in mouse BaF3 cells transfected with TPR-MET genes at 1 uM measured after 3 days by 3-(4,5-dimethylthiazol-2-yl)-2,5-diphenyltetrazolium bromide assay; assay type: functional; settings: BaF3, 72 h, time 3 day
[26] = system: BaF3; experiment: Inhibition of cell growth in mouse BaF3 cells in presence of interleukin 3 at 1 uM measured after 3 days by 3-(4,5-dimethylthiazol-2-yl)-2,5-diphenyltetrazolium bromide assay; assay type: functional, cell-based; settings: time 3.0 day
[27] = system: BaF3; experiment: Inhibition of cell growth in mouse BaF3 cells transfected with BCR-ABL genes in presence of interleukin 3 at 1 uM measured after 3 days by 3-(4,5-dimethylthiazol-2-yl)-2,5-diphenyltetrazolium bromide assay; assay type: functional, cell-based; settings: time 3.0 day
[28] = system: BaF3; experiment: Inhibition of cell growth in mouse BaF3 cells transfected with TPR-MET genes at 0.01 to 10 uM by 3-(4,5-dimethylthiazol-2-yl)-2,5-diphenyltetrazolium bromide assay; assay type: functional, cell-based; settings: dose 0.01-10 µM
[29] = system: BaF3; experiment: Inhibition of cell growth in mouse BaF3 cells transfected with TEL-JAK2 genes at 1 uM measured after 18 hrs by 3-(4,5-dimethylthiazol-2-yl)-2,5-diphenyltetrazolium bromide assay; assay type: functional, cell-based
[30] = system: BaF3; experiment: Induction of cell cycle arrest in mouse BaF3 cells transfected with TPR-MET genes assessed as cells accumulation at G2/M phase at 0.2 uM by fluorescence-activated cell sorter analysis (reference value: 12.2%); assay type: functional
[31] = system: BaF3; experiment: Inhibition of cell growth in mouse BaF3 cells transfected with TEL-PDGFbetaR genes at 1 uM measured after 18 hrs by 3-(4,5-dimethylthiazol-2-yl)-2,5-diphenyltetrazolium bromide assay; assay type: functional, cell-based
[32] = target: Proto-oncogene tyrosine-protein kinase Src (Homo sapiens, UniProt P12931); experiment: Inhibition of glutathione S-transferase fused c-Src (unknown origin) catalytic activity infected in Sf9 cells using poly-Glu-Tyr (4:1) as substrate
[33] = target: Hepatocyte growth factor receptor (Mus musculus) (UniProt P16056); experiment: Inhibition of Met autophosphorylation at Tyr480 in mouse BaF3 cells at 5 uM by immunoblotting analysis; assay type: cell-based
[34] = system: BaF3; experiment: Inhibition of […] phosphorylation of AKT at […] in mouse BaF3 cells transfected with TPR-MET genes at 0.2 to 5 uM by immunoblotting analysis; assay type: cell-based; settings: dose 0.2-5 µM
[35] = system: BaF3; experiment: Inhibition of migration of mouse BaF3 cells at 1 uM measured after 4 hrs by spontaneous transwell migration assay relative to control; assay type: functional
[36] = target: Hepatocyte growth factor receptor (Mus musculus) (UniProt P16056); experiment: Inhibition of Met autophosphorylation at Tyr496 in mouse BaF3 cells at 5 uM by immunoblotting analysis; assay type: cell-based
[37] = target: T1, Hepatocyte growth factor receptor; experiment: Inhibition of glutathione S-transferase fused Met (unknown origin) catalytic activity infected in Sf9 cells using poly-Glu-Tyr (4:1) as substrate
[38] = system: BaF3; experiment: Induction of cell cycle arrest in mouse BaF3 cells transfected with TPR-MET genes assessed as cells accumulation at G2/M phase at 1 uM by fluorescence-activated cell sorter analysis (reference value: 12.2%); assay type: functional
[39] = system: BaF3; experiment: Induction of cell cycle arrest in mouse BaF3 cells transfected with TPR-MET genes assessed as cells accumulation at S phase at 1 uM by fluorescence-activated cell sorter analysis (reference value: 45.4%); assay type: functional
[40] = system: BaF3; experiment: Inhibition of Serine phosphorylation of FKHR at Ser256 in mouse BaF3 cells transfected with TPR-MET genes at 0.2 to 5 uM by immunoblotting analysis; assay type: cell-based; settings: dose 0.2-5 µM
[41] = system: BaF3; experiment: Inhibition of cell growth in mouse BaF3 cells transfected with TPR-MET genes in presence of interleukin 3 at 1 uM by 3-(4,5-dimethylthiazol-2-yl)-2,5-diphenyltetrazolium bromide assay; assay type: functional, cell-based
[42] = target: Hepatocyte growth factor receptor (Mus musculus) (UniProt P16056); experiment: Inhibition of Met autophosphorylation at Tyr361/365/366 in mouse BaF3 cells at 5 uM by immunoblotting analysis; assay type: cell-based
[43] = system: BaF3; experiment: Induction of cell cycle arrest in mouse BaF3 cells transfected with TPR-MET genes assessed as cells accumulation at G2/M phase at 5 uM by fluorescence-activated cell sorter analysis (reference value: 12.2%); assay type: functional
[44] = system: NCI-H69; experiment: Growth inhibition of human NCI-H69 cells in presence of HGF measured after 72 hrs by 3-(4,5 dimethylthiazol-2-yl)-2,5-diphenyltetrazolium bromide assay; assay type: functional, cell-based
[45] = system: BaF3; experiment: Induction of cell cycle arrest in mouse BaF3 cells transfected with TPR-MET genes assessed as cells accumulation at S phase at 5 uM by fluorescence-activated cell sorter analysis (reference value: 45.4%); assay type: functional
[46] = system: BaF3; experiment: Inhibition of Serine phosphorylation of GSK3beta at Ser21/9 in mouse BaF3 cells transfected with TPR-MET genes at 0.2 to 5 uM by immunoblotting analysis; assay type: cell-based; settings: dose 0.2-5 µM
[47] = system: BaF3; experiment: Inhibition of cell growth in mouse BaF3 cells transfected with TPR-MET genes by 3-(4,5-dimethylthiazol-2-yl)-2,5-diphenyltetrazolium bromide assay; assay type: functional, cell-based
[48] = target: T2, Fibroblast growth factor receptor 1; experiment: Inhibition of glutathione S-transferase fused FGFR1 (unknown origin) catalytic activity infected in Sf9 cells using poly-Glu-Tyr (4:1) as substrate at 0.02 uM relative to control
[49] = system: BaF3; experiment: Induction of apoptosis in mouse BaF3 cells transfected with TPR-MET genes assessed as viable cells at 1 uM measured after 18 hrs by annexin V and propidium iodide staining based flow cytometry assay (reference value: 93.6%); assay type: functional; settings: read-out: Activity

Hepatocyte growth factor receptor (Mus musculus), sequence (P16056 whole entry, the tested form may be a part): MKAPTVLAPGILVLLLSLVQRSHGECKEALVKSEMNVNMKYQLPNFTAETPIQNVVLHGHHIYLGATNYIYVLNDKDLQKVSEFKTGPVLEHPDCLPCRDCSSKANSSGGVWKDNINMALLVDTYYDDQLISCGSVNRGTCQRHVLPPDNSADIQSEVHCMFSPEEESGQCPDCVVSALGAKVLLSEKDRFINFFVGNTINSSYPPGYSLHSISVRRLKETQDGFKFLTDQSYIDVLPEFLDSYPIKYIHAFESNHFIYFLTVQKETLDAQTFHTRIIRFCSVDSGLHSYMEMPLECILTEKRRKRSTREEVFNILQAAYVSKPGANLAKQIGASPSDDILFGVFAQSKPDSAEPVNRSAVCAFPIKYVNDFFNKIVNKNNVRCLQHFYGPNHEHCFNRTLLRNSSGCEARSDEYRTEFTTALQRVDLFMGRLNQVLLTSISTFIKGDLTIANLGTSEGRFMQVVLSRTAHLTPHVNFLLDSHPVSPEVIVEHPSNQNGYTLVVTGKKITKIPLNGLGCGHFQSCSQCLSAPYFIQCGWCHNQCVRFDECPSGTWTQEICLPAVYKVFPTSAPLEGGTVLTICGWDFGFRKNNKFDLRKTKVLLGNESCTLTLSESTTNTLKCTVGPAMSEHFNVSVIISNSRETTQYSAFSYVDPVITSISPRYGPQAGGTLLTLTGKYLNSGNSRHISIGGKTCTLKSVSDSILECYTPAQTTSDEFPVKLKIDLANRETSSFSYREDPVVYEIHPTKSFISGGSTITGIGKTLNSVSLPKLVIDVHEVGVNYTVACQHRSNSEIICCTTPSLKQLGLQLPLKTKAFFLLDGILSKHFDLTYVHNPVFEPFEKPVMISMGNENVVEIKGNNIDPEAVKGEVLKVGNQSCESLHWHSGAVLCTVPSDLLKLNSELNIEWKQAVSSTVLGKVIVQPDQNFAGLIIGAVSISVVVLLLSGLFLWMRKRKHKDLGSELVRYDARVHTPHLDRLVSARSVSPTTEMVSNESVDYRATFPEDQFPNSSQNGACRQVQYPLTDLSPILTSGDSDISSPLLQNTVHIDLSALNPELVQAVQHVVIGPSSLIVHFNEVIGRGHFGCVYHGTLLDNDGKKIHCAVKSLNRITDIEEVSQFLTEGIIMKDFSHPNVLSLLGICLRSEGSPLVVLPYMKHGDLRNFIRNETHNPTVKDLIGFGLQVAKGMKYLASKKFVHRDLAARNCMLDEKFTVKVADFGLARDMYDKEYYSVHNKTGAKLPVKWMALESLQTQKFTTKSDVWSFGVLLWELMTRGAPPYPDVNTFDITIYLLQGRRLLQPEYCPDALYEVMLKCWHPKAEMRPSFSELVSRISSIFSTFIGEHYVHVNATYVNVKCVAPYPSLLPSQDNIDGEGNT
T1 sequence (P08581 whole entry, the tested form may be a part): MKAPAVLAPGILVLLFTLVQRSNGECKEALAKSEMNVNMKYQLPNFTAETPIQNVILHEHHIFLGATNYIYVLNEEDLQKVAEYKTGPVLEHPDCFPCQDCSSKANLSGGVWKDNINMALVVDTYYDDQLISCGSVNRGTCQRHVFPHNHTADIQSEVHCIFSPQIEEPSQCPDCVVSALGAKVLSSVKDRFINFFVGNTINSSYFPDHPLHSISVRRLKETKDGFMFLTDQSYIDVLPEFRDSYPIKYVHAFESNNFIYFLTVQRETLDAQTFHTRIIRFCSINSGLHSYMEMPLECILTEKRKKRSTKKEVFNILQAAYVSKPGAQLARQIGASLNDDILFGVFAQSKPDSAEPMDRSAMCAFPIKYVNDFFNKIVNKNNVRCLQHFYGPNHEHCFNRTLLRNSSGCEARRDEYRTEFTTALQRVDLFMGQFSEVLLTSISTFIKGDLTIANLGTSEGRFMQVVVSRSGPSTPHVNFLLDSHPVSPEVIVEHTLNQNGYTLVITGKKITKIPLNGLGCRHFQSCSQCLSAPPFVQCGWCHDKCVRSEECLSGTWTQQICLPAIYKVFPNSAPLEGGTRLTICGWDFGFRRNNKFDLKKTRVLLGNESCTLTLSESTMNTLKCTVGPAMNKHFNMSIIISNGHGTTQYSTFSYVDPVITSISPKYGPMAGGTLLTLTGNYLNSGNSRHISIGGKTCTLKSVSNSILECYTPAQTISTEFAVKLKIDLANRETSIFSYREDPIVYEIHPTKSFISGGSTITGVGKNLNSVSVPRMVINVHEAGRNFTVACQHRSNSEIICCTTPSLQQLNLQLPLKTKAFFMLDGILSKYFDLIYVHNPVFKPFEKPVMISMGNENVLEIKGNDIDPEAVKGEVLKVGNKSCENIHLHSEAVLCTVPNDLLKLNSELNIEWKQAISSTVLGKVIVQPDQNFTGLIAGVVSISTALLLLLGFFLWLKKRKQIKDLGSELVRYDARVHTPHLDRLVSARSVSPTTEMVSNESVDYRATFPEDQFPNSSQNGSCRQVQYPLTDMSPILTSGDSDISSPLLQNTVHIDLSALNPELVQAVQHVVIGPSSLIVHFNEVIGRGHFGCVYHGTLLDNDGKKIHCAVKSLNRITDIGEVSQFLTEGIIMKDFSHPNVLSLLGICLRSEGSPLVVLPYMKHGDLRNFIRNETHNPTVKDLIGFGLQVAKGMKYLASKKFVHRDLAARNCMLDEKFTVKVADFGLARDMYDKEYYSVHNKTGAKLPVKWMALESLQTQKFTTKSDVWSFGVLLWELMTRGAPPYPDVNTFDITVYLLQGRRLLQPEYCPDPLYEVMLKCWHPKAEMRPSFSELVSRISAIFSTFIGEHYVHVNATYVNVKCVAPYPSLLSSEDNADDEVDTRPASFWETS
Vascular endothelial growth factor receptor 2, sequence (P35968 whole entry, the tested form may be a part): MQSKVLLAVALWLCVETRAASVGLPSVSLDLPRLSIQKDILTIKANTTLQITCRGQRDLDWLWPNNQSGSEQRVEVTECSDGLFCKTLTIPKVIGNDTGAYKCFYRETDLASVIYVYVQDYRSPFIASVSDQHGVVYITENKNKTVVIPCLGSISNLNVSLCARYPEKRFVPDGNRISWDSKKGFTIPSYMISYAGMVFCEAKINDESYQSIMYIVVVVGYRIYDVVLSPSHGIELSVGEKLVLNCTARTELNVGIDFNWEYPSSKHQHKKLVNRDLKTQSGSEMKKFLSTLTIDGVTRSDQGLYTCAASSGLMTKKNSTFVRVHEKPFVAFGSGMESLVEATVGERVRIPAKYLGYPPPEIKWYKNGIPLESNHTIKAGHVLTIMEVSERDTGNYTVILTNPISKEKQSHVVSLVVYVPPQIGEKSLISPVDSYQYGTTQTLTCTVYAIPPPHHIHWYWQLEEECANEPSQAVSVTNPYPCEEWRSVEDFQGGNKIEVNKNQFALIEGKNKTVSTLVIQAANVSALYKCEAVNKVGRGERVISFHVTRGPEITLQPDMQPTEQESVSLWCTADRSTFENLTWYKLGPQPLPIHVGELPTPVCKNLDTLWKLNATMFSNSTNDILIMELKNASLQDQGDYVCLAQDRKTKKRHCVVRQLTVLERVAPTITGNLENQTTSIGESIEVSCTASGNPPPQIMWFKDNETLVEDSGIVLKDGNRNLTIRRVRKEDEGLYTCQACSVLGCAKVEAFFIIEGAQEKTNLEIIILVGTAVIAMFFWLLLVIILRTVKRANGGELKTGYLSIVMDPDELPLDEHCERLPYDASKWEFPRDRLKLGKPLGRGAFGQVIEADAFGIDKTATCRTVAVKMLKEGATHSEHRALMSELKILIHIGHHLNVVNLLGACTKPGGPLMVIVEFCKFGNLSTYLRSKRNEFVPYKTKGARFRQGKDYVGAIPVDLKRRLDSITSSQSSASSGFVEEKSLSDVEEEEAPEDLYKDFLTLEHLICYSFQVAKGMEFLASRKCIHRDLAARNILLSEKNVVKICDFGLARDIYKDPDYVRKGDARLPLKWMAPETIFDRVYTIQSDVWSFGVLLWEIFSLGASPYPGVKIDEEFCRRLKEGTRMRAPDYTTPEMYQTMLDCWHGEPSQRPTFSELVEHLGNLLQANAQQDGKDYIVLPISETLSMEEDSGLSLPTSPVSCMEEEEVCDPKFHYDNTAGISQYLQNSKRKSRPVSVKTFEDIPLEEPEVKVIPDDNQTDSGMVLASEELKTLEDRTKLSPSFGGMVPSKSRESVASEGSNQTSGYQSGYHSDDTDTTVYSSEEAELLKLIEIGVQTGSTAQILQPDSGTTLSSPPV

With `Cc1[nH]c(/C=C2/C(=O)Nc3ccc(S(=O)(=O)N(C)c4cccc(Cl)c4)cc32)c(C)c1C(=O)N1CCN(C)CC1` the inhibition [1] was “Dose-Dependent Effect”, the inhibition [2] was “Active” and the Activity [3] was 24%. For the same compound, the IC50 [4] was over 10 µM, the inhibition [5] was “inactive” and the Activity [6] was 46.6%. The Activity [7] was 17.2%, the Activity [8] was 13.4% and the Activity [9] was 40%. The IC50 [10] was 1.3 µM, the inhibition [11] was “Dose-Dependent Effect” and the IC50 [12] was over 20 µM. For the same compound, the IC50 [13] was over 100 µM, the IC50 [14] was 1 µM and the IC50 [15] was over 100 µM. For the same compound, the IC50 [16] was 9.7 µM, the inhibition [17] was “inactive” and the inhibition [18] was “Dose-Dependent Effect”. For the same compound, the inhibition at 5 µM [19] was 80%, the Activity [20] was 11.3% and the Activity [21] was 40%. For the same compound, the inhibition [22] was “inactive”, the inhibition [23] was “inactive” and the Activity [24] was 1.1%. The inhibition at 1 µM [25] was 100%, the inhibition [26] was “inactive” and the inhibition [27] was “inactive”. The inhibition [28] was “Dose-Dependent Effect”, the inhibition [29] was “inactive” and the Activity [30] was 13.4%. The inhibition [31] was “inactive”, the IC50 [32] was over 10 µM and the inhibition [33] was “Active”. The inhibition [34] was “Active”, the inhibition at 1 µM [35] was 44.8% and the inhibition [36] was “Active”. It also gave an IC50 [37] of 0.02 µM, an Activity [38] of 6% and an Activity [39] of 29.8%. For the same compound, the inhibition [40] was “Active”, the inhibition [41] was “Active” and the inhibition [42] was “Active”. The Activity [43] was 8.3%, the inhibition [44] was “Dose-Dependent Effect” and the Activity [45] was 21.1%. For the same compound, the inhibition [46] was “Active”, the IC50 [47] was under 3 µM and the inhibition [48] was 2%. It also gave a viability at 1 µM [49] of 70.3%.

Source: ChEMBL document CHEMBL5653596, “A novel small molecule met inhibitor induces apoptosis in cells transformed by the oncogenic TPR-MET tyrosine kinase” (Cancer Res, 2003)
